Data on 1 substance can be found in patent US20090233939A1, “TREATMENT OF AMM” (priority 2002, published 2009).

Test [1] relates to patient with splenomegaly.
The target of test [2] is Flt-1 (Homo sapiens, UniProt P17948). As to conditions: cited from earlier work.
Test [3] deals with patient having a protuberant spleen. The test can be described thus: Example 2: patient with massive protuberant spleen treated with PTK787. The format is in vivo, human. As to conditions: 750 mg twice daily, after five days of therapy. From the text:
After five days of therapy, the spleen had less than 10% of its original size.

Test [4] addresses Flt-4 (Homo sapiens, UniProt P35916). To be noted: cited from earlier work.
The test system of test [5] is other tyrosine kinase receptors, including c-Kit, bFGF and PDGF. To be noted: cited from earlier work.

Sequence of Flt-4 (P35916 25-1363, species assumed): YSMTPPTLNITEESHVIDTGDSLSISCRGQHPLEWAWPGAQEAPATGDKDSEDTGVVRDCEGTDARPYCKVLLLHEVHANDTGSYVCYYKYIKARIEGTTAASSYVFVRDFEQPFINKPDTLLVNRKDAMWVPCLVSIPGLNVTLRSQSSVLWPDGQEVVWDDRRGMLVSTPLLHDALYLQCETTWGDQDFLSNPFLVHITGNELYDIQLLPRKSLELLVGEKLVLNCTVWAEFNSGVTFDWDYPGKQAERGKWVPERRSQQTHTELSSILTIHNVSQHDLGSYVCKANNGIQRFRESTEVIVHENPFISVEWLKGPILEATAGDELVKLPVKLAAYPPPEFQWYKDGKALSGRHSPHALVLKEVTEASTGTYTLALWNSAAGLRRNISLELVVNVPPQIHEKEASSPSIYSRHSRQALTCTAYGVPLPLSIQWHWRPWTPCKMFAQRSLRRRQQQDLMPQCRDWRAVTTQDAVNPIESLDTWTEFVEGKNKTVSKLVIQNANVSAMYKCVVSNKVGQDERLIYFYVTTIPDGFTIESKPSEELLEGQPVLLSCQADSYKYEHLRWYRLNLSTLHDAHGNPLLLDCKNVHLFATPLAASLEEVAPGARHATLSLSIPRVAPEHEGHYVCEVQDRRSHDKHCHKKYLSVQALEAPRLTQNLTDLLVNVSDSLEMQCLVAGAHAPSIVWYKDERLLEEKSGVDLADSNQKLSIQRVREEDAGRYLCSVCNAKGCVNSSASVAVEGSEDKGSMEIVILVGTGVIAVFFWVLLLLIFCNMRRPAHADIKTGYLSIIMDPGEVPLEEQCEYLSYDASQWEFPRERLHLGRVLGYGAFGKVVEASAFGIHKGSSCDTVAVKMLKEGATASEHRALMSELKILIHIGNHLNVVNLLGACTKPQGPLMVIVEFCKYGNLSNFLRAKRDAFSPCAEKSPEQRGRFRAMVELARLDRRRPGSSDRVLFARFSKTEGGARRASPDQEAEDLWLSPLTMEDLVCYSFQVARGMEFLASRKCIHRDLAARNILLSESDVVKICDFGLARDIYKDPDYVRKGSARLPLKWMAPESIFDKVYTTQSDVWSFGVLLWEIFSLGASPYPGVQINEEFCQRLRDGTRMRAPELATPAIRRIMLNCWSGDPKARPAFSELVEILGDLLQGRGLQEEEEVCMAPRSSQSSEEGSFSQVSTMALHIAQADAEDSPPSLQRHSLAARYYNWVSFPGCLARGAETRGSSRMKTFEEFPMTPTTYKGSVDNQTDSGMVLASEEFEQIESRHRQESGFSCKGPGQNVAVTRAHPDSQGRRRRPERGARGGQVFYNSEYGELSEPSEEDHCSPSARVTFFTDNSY
Sequence of Flt-1 (P17948 27-1338, species assumed): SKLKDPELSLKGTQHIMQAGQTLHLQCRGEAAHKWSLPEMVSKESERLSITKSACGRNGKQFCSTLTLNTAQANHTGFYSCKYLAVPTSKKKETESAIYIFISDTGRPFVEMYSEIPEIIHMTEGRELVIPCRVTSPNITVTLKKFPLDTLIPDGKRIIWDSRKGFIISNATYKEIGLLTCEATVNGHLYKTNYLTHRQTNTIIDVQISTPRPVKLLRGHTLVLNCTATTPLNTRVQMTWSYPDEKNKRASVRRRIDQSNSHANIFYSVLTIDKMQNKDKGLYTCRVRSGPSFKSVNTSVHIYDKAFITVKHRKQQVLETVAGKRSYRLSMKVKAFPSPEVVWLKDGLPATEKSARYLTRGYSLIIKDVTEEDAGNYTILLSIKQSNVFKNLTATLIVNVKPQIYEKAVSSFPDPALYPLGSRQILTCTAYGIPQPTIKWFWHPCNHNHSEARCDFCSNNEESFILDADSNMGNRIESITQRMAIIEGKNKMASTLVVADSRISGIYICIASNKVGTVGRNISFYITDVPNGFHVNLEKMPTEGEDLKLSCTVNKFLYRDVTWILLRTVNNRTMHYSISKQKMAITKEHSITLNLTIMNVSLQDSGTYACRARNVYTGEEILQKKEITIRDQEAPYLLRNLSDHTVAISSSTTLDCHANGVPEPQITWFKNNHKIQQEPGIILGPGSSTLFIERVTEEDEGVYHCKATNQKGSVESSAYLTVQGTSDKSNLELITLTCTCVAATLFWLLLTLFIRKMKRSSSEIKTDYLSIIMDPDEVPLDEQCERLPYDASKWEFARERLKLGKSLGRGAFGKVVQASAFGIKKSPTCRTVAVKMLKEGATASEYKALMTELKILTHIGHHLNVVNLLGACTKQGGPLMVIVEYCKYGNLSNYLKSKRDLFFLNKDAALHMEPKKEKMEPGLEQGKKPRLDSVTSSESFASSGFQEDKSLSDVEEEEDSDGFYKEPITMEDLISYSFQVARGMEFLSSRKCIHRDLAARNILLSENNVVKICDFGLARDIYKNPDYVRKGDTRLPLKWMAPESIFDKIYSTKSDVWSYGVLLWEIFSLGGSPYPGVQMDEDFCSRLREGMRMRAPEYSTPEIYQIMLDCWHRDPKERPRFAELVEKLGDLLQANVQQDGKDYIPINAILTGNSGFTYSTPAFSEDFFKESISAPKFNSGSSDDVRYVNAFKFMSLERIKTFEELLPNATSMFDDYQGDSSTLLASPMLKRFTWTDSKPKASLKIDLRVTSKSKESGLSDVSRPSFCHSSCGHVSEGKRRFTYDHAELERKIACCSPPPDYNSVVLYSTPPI

PTK787: the splenomegaly entry in test [1] (750 mg twice daily, first 14 days of chemotherapy) is listed as “decrease of splenomegaly”. Besides, in test [1] (750 mg twice daily, first 14 days, drop from 19,000), the “white blood cells count” value was 14,000. For the same substance, the “spleen during interruption of therapy” value in test [1] (during the interruption of therapy) was “the spleen began to increase again”. For the same substance, the “inhibition of Flt-1” value in test [2] is listed as “can also inhibit”. The spleen size entry in test [3] is “less than 10 % of its original size”. Moreover, the “inhibition of Flt-4” value in test [4] is “can also inhibit”. In test [5], the “activity against other tyrosine kinase receptors” value is “has activity”.
